PMC9797307, “Measurement of Pharmacokinetics and Tissue Distribution of Four Compounds from Nauclea officinalis in Rat Plasma and Tissues through HPLC-MS/MS” (Journal of Analytical Methods in Chemistry, 2022)

Assay: Stability of QC samples in rat plasma and tissue homogenates under different storage conditions
Type: in vitro ADME
Details: in % (unit assumed)

C/C=C1/COC(=O)[C@H]2C(=O)N3CCc4c([nH]c5ccccc45)[C@@H]3C[C@@H]12 [Naucleactonin C]
Accuracy, Ambient temperature for 4 h (Brain, 5 ng/mL): 106.35 ± 11.82 | Accuracy, Autosampler at 4°C for 8 h (Brain, 5 ng/mL): 109.83 ± 6.05 | Accuracy, Three freeze-thraw cycles (Brain, 5 ng/mL): 98.92 ± 10.65 | Accuracy, −80°C for 30 days (Brain, 5 ng/mL): 104.10 ± 10.88 | Accuracy, Ambient temperature for 4 h (Brain, 8 ng/mL): 88.87 ± 10.43 | Accuracy, Autosampler at 4°C for 8 h (Brain, 8 ng/mL): 90.65 ± 6.37 | Accuracy, Three freeze-thraw cycles (Brain, 8 ng/mL): 89.95 ± 9.23 | Accuracy, −80°C for 30 days (Brain, 8 ng/mL): 88.82 ± 10.57 | Accuracy, Ambient temperature for 4 h (Brain, 140 ng/mL): 88.33 ± 6.74 | Accuracy, Autosampler at 4°C for 8 h (Brain, 140 ng/mL): 87.92 ± 8.15 | Accuracy, Three freeze-thraw cycles (Brain, 140 ng/mL): 87.20 ± 4.98 | Accuracy, −80°C for 30 days (Brain, 140 ng/mL): 87.93 ± 5.81 | Accuracy, Ambient temperature for 4 h (Brain, 2400 ng/mL): 99.43 ± 6.38 | Accuracy, Autosampler at 4°C for 8 h (Brain, 2400 ng/mL): 112.67 ± 6.62 | Accuracy, Three freeze-thraw cycles (Brain, 2400 ng/mL): 109.67 ± 6.44 | Accuracy, −80°C for 30 days (Brain, 2400 ng/mL): 109.00 ± 5.22 | Accuracy, Ambient temperature for 4 h (Heart, 5 ng/mL): 111.97 ± 11.63 | Accuracy, Autosampler at 4°C for 8 h (Heart, 5 ng/mL): 100.78 ± 9.63 | Accuracy, Three freeze-thraw cycles (Heart, 5 ng/mL): 107.98 ± 9.45 | Accuracy, −80°C for 30 days (Heart, 5 ng/mL): 107.42 ± 10.24 | Accuracy, Ambient temperature for 4 h (Heart, 8 ng/mL): 110.50 ± 4.42 | Accuracy, Autosampler at 4°C for 8 h (Heart, 8 ng/mL): 107.25 ± 9.25 | Accuracy, Three freeze-thraw cycles (Heart, 8 ng/mL): 109.08 ± 8.25 | Accuracy, −80°C for 30 days (Heart, 8 ng/mL): 110.87 ± 9.04 | Accuracy, Ambient temperature for 4 h (Heart, 140 ng/mL): 102.78 ± 6.89 | Accuracy, Autosampler at 4°C for 8 h (Heart, 140 ng/mL): 104.88 ± 3.80 | Accuracy, Three freeze-thraw cycles (Heart, 140 ng/mL): 100.40 ± 9.13 | Accuracy, −80°C for 30 days (Heart, 140 ng/mL): 98.28 ± 5.70 | Accuracy, Ambient temperature for 4 h (Heart, 2400 ng/mL): 112.33 ± 10.41 | Accuracy, Autosampler at 4°C for 8 h (Heart, 2400 ng/mL): 111.50 ± 5.68 | Accuracy, Three freeze-thraw cycles (Heart, 2400 ng/mL): 112.33 ± 5.72 | Accuracy, −80°C for 30 days (Heart, 2400 ng/mL): 110.50 ± 4.81 | Accuracy, Ambient temperature for 4 h (Kidney, 5 ng/mL): 109.33 ± 7.55 | Accuracy, Autosampler at 4°C for 8 h (Kidney, 5 ng/mL): 106.08 ± 8.96 | Accuracy, Three freeze-thraw cycles (Kidney, 5 ng/mL): 98.92 ± 9.91 | Accuracy, −80°C for 30 days (Kidney, 5 ng/mL): 97.18 ± 10.46 | Accuracy, Ambient temperature for 4 h (Kidney, 8 ng/mL): 99.10 ± 4.24 | Accuracy, Autosampler at 4°C for 8 h (Kidney, 8 ng/mL): 97.38 ± 7.31 | Accuracy, Three freeze-thraw cycles (Kidney, 8 ng/mL): 91.10 ± 9.20 | Accuracy, −80°C for 30 days (Kidney, 8 ng/mL): 94.77 ± 7.62 | Accuracy, Ambient temperature for 4 h (Kidney, 140 ng/mL): 96.08 ± 7.36 | Accuracy, Autosampler at 4°C for 8 h (Kidney, 140 ng/mL): 95.43 ± 7.99 | Accuracy, Three freeze-thraw cycles (Kidney, 140 ng/mL): 101.10 ± 4.98 | Accuracy, −80°C for 30 days (Kidney, 140 ng/mL): 100.25 ± 8.25 | Accuracy, Ambient temperature for 4 h (Kidney, 2400 ng/mL): 108.00 ± 5.62 | Accuracy, Autosampler at 4°C for 8 h (Kidney, 2400 ng/mL): 103.87 ± 4.68 | Accuracy, Three freeze-thraw cycles (Kidney, 2400 ng/mL): 104.57 ± 6.09 | Accuracy, −80°C for 30 days (Kidney, 2400 ng/mL): 102.30 ± 5.90 | Accuracy, Ambient temperature for 4 h (Liver, 5 ng/mL): 101.78 ± 11.83 | Accuracy, Autosampler at 4°C for 8 h (Liver, 5 ng/mL): 107.70 ± 5.36 | Accuracy, Three freeze-thraw cycles (Liver, 5 ng/mL): 98.32 ± 6.66 | Accuracy, −80°C for 30 days (Liver, 5 ng/mL): 98.38 ± 12.07 | Accuracy, Ambient temperature for 4 h (Liver, 8 ng/mL): 87.60 ± 5.90 | Accuracy, Autosampler at 4°C for 8 h (Liver, 8 ng/mL): 86.47 ± 4.52 | Accuracy, Three freeze-thraw cycles (Liver, 8 ng/mL): 90.60 ± 4.91 | Accuracy, −80°C for 30 days (Liver, 8 ng/mL): 86.00 ± 8.60 | Accuracy, Ambient temperature for 4 h (Liver, 140 ng/mL): 88.57 ± 2.44 | Accuracy, Autosampler at 4°C for 8 h (Liver, 140 ng/mL): 95.00 ± 4.15 | Accuracy, Three freeze-thraw cycles (Liver, 140 ng/mL): 96.28 ± 4.36 | Accuracy, −80°C for 30 days (Liver, 140 ng/mL): 97.32 ± 7.17 | Accuracy, Ambient temperature for 4 h (Liver, 2400 ng/mL): 98.93 ± 3.81 | Accuracy, Autosampler at 4°C for 8 h (Liver, 2400 ng/mL): 91.37 ± 2.51 | Accuracy, Three freeze-thraw cycles (Liver, 2400 ng/mL): 89.35 ± 3.70 | Accuracy, −80°C for 30 days (Liver, 2400 ng/mL): 89.97 ± 7.32 | Accuracy, Ambient temperature for 4 h (Lung, 5 ng/mL): 109.50 ± 11.47 | Accuracy, Autosampler at 4°C for 8 h (Lung, 5 ng/mL): 100.40 ± 10.26 | Accuracy, Three freeze-thraw cycles (Lung, 5 ng/mL): 101.05 ± 5.33 | Accuracy, −80°C for 30 days (Lung, 5 ng/mL): 95.98 ± 10.47 | Accuracy, Ambient temperature for 4 h (Lung, 8 ng/mL): 94.73 ± 8.92 | Accuracy, Autosampler at 4°C for 8 h (Lung, 8 ng/mL): 91.40 ± 9.71 | Accuracy, Three freeze-thraw cycles (Lung, 8 ng/mL): 101.90 ± 10.45 | Accuracy, −80°C for 30 days (Lung, 8 ng/mL): 99.03 ± 10.49 | Accuracy, Ambient temperature for 4 h (Lung, 140 ng/mL): 102.38 ± 4.12 | Accuracy, Autosampler at 4°C for 8 h (Lung, 140 ng/mL): 94.45 ± 5.92 | Accuracy, Three freeze-thraw cycles (Lung, 140 ng/mL): 93.75 ± 8.53 | Accuracy, −80°C for 30 days (Lung, 140 ng/mL): 92.58 ± 3.60 | Accuracy, Ambient temperature for 4 h (Lung, 2400 ng/mL): 111.37 ± 9.27 | Accuracy, Autosampler at 4°C for 8 h (Lung, 2400 ng/mL): 111.85 ± 9.53 | Accuracy, −80°C for 30 days (Lung, 2400 ng/mL): 111.67 ± 3.39 | Accuracy, Ambient temperature for 4 h (Plasma, 5 ng/mL): 101.95 ± 10.33 | Accuracy, Autosampler at 4°C for 8 h (Plasma, 5 ng/mL): 106.67 ± 10.88 | Accuracy, Three freeze-thraw cycles (Plasma, 5 ng/mL): 91.87 ± 8.63 | Accuracy, −80°C for 30 days (Plasma, 5 ng/mL): 109.57 ± 12.66 | Accuracy, Ambient temperature for 4 h (Plasma, 8 ng/mL): 108.88 ± 1.87 | Accuracy, Autosampler at 4°C for 8 h (Plasma, 8 ng/mL): 105.01 ± 6.32 | Accuracy, Three freeze-thraw cycles (Plasma, 8 ng/mL): 105.88 ± 1.87 | Accuracy, −80°C for 30 days (Plasma, 8 ng/mL): 113.33 ± 5.32 | Accuracy, Ambient temperature for 4 h (Plasma, 140 ng/mL): 87.67 ± 9.20 | Accuracy, Autosampler at 4°C for 8 h (Plasma, 140 ng/mL): 87.88 ± 4.14 | Accuracy, Three freeze-thraw cycles (Plasma, 140 ng/mL): 111.88 ± 1.87 | Accuracy, −80°C for 30 days (Plasma, 140 ng/mL): 111.57 ± 9.60 | Accuracy, Ambient temperature for 4 h (Plasma, 2400 ng/mL): 88.93 ± 6.01 | Accuracy, Autosampler at 4°C for 8 h (Plasma, 2400 ng/mL): 89.25 ± 7.58 | Accuracy, Three freeze-thraw cycles (Plasma, 2400 ng/mL): 89.17 ± 7.49 | Accuracy, −80°C for 30 days (Plasma, 2400 ng/mL): 113.83 ± 7.14 | Accuracy, Ambient temperature for 4 h (Small intestine, 5 ng/mL): 111.90 ± 12.07 | Accuracy, Autosampler at 4°C for 8 h (Small intestine, 5 ng/mL): 111.67 ± 8.14 | Accuracy, Three freeze-thraw cycles (Small intestine, 5 ng/mL): 111.17 ± 8.33 | Accuracy, −80°C for 30 days (Small intestine, 5 ng/mL): 112.67 ± 8.78 | Accuracy, Ambient temperature for 4 h (Small intestine, 8 ng/mL): 103.33 ± 3.39 | Accuracy, Autosampler at 4°C for 8 h (Small intestine, 8 ng/mL): 100.03 ± 11.46 | Accuracy, Three freeze-thraw cycles (Small intestine, 8 ng/mL): 100.60 ± 10.24 | Accuracy, −80°C for 30 days (Small intestine, 8 ng/mL): 104.25 ± 9.49 | Accuracy, Ambient temperature for 4 h (Small intestine, 140 ng/mL): 88.60 ± 9.48 | Accuracy, Autosampler at 4°C for 8 h (Small intestine, 140 ng/mL): 89.80 ± 8.30 | Accuracy, Three freeze-thraw cycles (Small intestine, 140 ng/mL): 87.88 ± 5.57 | Accuracy, −80°C for 30 days (Small intestine, 140 ng/mL): 90.17 ± 7.26 | Accuracy, Ambient temperature for 4 h (Small intestine, 2400 ng/mL): 107.48 ± 8.23 | Accuracy, Autosampler at 4°C for 8 h (Small intestine, 2400 ng/mL): 103.75 ± 6.68 | Accuracy, Three freeze-thraw cycles (Small intestine, 2400 ng/mL): 108.43 ± 8.65 | Accuracy, −80°C for 30 days (Small intestine, 2400 ng/mL): 102.32 ± 8.65 | Accuracy, Ambient temperature for 4 h (Spleen, 5 ng/mL): 110.33 ± 8.71 | Accuracy, Autosampler at 4°C for 8 h (Spleen, 5 ng/mL): 112.92 ± 8.72 | Accuracy, Three freeze-thraw cycles (Spleen, 5 ng/mL): 110.67 ± 8.57 | Accuracy, −80°C for 30 days (Spleen, 5 ng/mL): 109.68 ± 12.57 | Accuracy, Ambient temperature for 4 h (Spleen, 8 ng/mL): 99.28 ± 13.31 | Accuracy, Autosampler at 4°C for 8 h (Spleen, 8 ng/mL): 93.42 ± 8.00 | Accuracy, Three freeze-thraw cycles (Spleen, 8 ng/mL): 96.13 ± 11.98 | Accuracy, −80°C for 30 days (Spleen, 8 ng/mL): 101.90 ± 10.25 | Accuracy, Ambient temperature for 4 h (Spleen, 140 ng/mL): 93.13 ± 6.10 | Accuracy, Autosampler at 4°C for 8 h (Spleen, 140 ng/mL): 95.27 ± 7.08 | Accuracy, Three freeze-thraw cycles (Spleen, 140 ng/mL): 89.18 ± 8.23 | Accuracy, −80°C for 30 days (Spleen, 140 ng/mL): 92.35 ± 2.70 | Accuracy, Ambient temperature for 4 h (Spleen, 2400 ng/mL): 103.33 ± 8.37 | Accuracy, Autosampler at 4°C for 8 h (Spleen, 2400 ng/mL): 105.67 ± 8.50 | Accuracy, Three freeze-thraw cycles (Spleen, 2400 ng/mL): 107.73 ± 8.10 | Accuracy, −80°C for 30 days (Spleen, 2400 ng/mL): 109.83 ± 4.96 | Accuracy, Ambient temperature for 4 h (Stomach, 5 ng/mL): 111.00 ± 7.90 | Accuracy, Autosampler at 4°C for 8 h (Stomach, 5 ng/mL): 112.17 ± 7.25 | Accuracy, Three freeze-thraw cycles (Stomach, 5 ng/mL): 113.12 ± 9.97 | Accuracy, −80°C for 30 days (Stomach, 5 ng/mL): 113.83 ± 2.99 | Accuracy, Ambient temperature for 4 h (Stomach, 8 ng/mL): 107.32 ± 12.96 | Accuracy, Autosampler at 4°C for 8 h (Stomach, 8 ng/mL): 98.37 ± 10.75 | Accuracy, Three freeze-thraw cycles (Stomach, 8 ng/mL): 105.90 ± 9.13 | Accuracy, −80°C for 30 days (Stomach, 8 ng/mL): 103.55 ± 9.49 | Accuracy, Ambient temperature for 4 h (Stomach, 140 ng/mL): 88.15 ± 7.91 | Accuracy, Autosampler at 4°C for 8 h (Stomach, 140 ng/mL): 86.38 ± 8.38 | Accuracy, Three freeze-thraw cycles (Stomach, 140 ng/mL): 87.12 ± 5.24 | Accuracy, −80°C for 30 days (Stomach, 140 ng/mL): 88.28 ± 6.31 | Accuracy, Ambient temperature for 4 h (Stomach, 2400 ng/mL): 100.53 ± 7.29 | Accuracy, Autosampler at 4°C for 8 h (Stomach, 2400 ng/mL): 99.52 ± 5.85 | Accuracy, Three freeze-thraw cycles (Stomach, 2400 ng/mL): 104.90 ± 5.53 | Accuracy, −80°C for 30 days (Stomach, 2400 ng/mL): 102.32 ± 8.22
